The target of one assay is human Nav1.8 (Homo sapiens (Human), UniProt Q9Y5Y9). The experiment in a line: FRET-based membrane potential assay, recombinant human sodium channel Nav1.8. Format: cell-based. Particulars: HEK293 cells stably expressing recombinant human Nav1.8; depolarization with veratridine (EC80) + scorpion venom. As to the method: FRET-Based Membrane Potential Assays.
Recombinant, Human Sodium Channel, Nav1.8.
Two days prior to the experiment, frozen HEK293 cells stably expressing recombinant human Nav1.8 (Essen, Ann Arbor, Mich.) were quickly thawed and plated at 22,500 cells/well in growth medium [MEM (Invitrogen #11095) with 10% FBS (Invitrogen #10082), 1 mM sodium pyruvate (Invitrogen, #C11360), 10 units/mL penicillin/10 U/mL streptomycin/29.2 μg/mL glutamine ((PSG 1%, Invitrogen #10378), 400 μg/mL zeocin (Invitrogen #R250) in black-walled, clear-bottom 384-well poly-D-lysine-coated assay plates (Greiner Bio-One, Frickenhausen, Germany) and incubated in a humidified 5% CO2 incubator at 37° C. On the day of the assay, medium was removed by aspiration, and cells were washed with assay buffer [HBSS (Invitrogen, Carlsbad, Calif.) containing 20 mM HEPES (Invitrogen, Carlsbad, Calif.)]. After washing, 30 μL assay buffer containing the fluorescent voltage-sensor probe CC2-DMPE (Invitrogen, Carlsbad, Calif.) at 20 μM and 0.01% pluronic F-127 (Invitrogen, Carlsbad, Calif.) was added to the cells. Cells were incubated for 40 minutes at room temperature in the dark. Following the incubation, the cells were washed and 30 μL assay buffer containing 2.5 μM DiSBAC2(3) substrate (Invitrogen, Carlsbad, Calif.) and 0.5 mM VABSC-1 (Invitrogen, Carlsbad, Calif.) was added to the cells. The cells were incubated for 60 minutes at room temperature in the dark. Fluorescence readings were made using a FLIPR®^TETRA (Molecular Devices, Sunnyvale Calif.) equipped with voltage-sensor probe optics. The depolarizing agent, veratridine (Sigma-Aldrich, St. Louis, Mo.), was made up at 3× concentrations in assay buffer containing 1 mg/mL scorpion venom (SVqq, from Leiurus quinquestriatus; Sigma-Aldrich, St. Louis, Mo.). The assay agonist/opener concentration was determined each day using a 6-point veratridine concentration curve in duplicate, tested with three concentrations of tetracaine (0.1, 0.06, 0.01 μM all in 0.03% dimethyl sulfoxide) and 0.03% dimethyl sulfoxide control in assay buffer. […] Test compounds in the daughter plate were diluted to (˜3×) solutions in assay buffer immediately before assaying. Using the FLIPR®^TETRA, 20 μL of the (3×) compound solutions were first added to the cells, then 20 μL of depolarizing solution (3×EC80 veratridine+SVqq) were added 3 minutes later to activate the channel. Changes in fluorescence were measured at wavelengths of 440-480 nm and 565-625 nm over the course of the experimental run. Membrane depolarization was expressed as a ratio of the maximum F440-480 nm/F565-625 nm reading above average baseline F440-480 nm/F565-625 nm reading. IC50 values were calculated from curve fits of the ratio data using a four-parameter logistic Hill equation (Accelrys Assay Explorer 3.3 Client, Accelrys, San Diego, Calif.) with percent inhibition plotted against compound concentration.

The target in the next assay is human Nav1.7 (Homo sapiens (Human), UniProt Q15858). The experiment in a line: FRET-based membrane potential assay, recombinant human sodium channel Nav1.7. Format: cell-based. Particulars: HEK293 cells stably expressing recombinant human Nav1.7; depolarization with veratridine (EC80) + scorpion venom. An outline of the steps: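 IC50 derived by four-parameter Hill fit of percent inhibition of depolarization, measured as peak F440-480/F565-625 ratio over baseline. Stable human Nav1.7 HEK293 cells, dye-loaded with CC2-DMPE and DiSBAC2(3)/VABSC-1 at room temperature, received compound 3 min ahead of veratridine (EC80) plus scorpion venom.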
Sequence of human Nav1.7 (Q15858 whole entry): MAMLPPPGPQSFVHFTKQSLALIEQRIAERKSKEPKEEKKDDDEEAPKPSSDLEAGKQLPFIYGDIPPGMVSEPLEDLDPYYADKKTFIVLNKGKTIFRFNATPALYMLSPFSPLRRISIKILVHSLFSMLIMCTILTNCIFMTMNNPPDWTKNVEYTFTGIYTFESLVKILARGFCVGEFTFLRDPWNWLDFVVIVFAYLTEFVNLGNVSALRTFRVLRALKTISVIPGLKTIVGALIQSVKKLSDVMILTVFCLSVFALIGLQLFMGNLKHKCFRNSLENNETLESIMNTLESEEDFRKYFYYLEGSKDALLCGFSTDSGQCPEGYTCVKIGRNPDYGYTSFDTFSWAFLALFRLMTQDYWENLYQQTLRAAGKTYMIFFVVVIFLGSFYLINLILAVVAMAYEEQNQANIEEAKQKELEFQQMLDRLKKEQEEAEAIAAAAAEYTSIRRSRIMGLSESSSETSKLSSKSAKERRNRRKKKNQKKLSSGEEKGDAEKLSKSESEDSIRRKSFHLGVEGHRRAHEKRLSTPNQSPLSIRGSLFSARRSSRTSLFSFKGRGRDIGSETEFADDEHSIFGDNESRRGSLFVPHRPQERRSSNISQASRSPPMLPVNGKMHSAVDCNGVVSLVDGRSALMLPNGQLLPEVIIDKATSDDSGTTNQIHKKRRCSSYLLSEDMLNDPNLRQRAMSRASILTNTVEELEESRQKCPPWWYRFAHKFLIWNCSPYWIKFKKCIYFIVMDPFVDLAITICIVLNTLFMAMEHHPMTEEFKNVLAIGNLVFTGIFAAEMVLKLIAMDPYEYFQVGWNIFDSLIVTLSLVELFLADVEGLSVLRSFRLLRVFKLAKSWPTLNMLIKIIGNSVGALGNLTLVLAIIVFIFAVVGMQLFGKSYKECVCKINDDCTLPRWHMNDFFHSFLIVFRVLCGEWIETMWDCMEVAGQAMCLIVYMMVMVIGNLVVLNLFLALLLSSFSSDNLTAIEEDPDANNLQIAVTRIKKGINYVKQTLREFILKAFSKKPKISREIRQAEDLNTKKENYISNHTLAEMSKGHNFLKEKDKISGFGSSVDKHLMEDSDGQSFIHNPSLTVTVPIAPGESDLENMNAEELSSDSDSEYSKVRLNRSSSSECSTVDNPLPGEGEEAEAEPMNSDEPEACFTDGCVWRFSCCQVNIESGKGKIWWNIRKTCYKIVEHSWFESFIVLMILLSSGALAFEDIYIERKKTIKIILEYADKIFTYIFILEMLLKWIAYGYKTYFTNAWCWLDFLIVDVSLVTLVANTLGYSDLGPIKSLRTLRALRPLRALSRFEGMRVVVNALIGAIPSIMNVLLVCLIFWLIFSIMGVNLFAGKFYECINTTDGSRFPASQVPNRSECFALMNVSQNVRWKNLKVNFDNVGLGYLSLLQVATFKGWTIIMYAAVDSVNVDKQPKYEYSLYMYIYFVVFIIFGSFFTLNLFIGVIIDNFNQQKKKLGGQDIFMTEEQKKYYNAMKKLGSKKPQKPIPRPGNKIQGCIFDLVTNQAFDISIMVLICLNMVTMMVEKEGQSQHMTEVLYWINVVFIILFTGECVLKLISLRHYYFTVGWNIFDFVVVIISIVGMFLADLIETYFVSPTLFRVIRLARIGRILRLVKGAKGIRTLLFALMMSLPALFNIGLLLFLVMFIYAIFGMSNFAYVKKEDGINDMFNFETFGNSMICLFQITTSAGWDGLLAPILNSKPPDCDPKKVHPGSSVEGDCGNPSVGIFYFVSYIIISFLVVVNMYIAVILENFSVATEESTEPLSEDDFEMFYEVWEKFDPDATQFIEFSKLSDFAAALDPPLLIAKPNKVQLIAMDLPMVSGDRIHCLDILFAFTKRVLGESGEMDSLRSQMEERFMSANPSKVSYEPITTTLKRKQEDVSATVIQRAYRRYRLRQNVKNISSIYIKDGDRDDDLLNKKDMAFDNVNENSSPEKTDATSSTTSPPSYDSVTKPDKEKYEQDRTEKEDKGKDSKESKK

Sequence of human Nav1.8 (Q9Y5Y9 whole entry): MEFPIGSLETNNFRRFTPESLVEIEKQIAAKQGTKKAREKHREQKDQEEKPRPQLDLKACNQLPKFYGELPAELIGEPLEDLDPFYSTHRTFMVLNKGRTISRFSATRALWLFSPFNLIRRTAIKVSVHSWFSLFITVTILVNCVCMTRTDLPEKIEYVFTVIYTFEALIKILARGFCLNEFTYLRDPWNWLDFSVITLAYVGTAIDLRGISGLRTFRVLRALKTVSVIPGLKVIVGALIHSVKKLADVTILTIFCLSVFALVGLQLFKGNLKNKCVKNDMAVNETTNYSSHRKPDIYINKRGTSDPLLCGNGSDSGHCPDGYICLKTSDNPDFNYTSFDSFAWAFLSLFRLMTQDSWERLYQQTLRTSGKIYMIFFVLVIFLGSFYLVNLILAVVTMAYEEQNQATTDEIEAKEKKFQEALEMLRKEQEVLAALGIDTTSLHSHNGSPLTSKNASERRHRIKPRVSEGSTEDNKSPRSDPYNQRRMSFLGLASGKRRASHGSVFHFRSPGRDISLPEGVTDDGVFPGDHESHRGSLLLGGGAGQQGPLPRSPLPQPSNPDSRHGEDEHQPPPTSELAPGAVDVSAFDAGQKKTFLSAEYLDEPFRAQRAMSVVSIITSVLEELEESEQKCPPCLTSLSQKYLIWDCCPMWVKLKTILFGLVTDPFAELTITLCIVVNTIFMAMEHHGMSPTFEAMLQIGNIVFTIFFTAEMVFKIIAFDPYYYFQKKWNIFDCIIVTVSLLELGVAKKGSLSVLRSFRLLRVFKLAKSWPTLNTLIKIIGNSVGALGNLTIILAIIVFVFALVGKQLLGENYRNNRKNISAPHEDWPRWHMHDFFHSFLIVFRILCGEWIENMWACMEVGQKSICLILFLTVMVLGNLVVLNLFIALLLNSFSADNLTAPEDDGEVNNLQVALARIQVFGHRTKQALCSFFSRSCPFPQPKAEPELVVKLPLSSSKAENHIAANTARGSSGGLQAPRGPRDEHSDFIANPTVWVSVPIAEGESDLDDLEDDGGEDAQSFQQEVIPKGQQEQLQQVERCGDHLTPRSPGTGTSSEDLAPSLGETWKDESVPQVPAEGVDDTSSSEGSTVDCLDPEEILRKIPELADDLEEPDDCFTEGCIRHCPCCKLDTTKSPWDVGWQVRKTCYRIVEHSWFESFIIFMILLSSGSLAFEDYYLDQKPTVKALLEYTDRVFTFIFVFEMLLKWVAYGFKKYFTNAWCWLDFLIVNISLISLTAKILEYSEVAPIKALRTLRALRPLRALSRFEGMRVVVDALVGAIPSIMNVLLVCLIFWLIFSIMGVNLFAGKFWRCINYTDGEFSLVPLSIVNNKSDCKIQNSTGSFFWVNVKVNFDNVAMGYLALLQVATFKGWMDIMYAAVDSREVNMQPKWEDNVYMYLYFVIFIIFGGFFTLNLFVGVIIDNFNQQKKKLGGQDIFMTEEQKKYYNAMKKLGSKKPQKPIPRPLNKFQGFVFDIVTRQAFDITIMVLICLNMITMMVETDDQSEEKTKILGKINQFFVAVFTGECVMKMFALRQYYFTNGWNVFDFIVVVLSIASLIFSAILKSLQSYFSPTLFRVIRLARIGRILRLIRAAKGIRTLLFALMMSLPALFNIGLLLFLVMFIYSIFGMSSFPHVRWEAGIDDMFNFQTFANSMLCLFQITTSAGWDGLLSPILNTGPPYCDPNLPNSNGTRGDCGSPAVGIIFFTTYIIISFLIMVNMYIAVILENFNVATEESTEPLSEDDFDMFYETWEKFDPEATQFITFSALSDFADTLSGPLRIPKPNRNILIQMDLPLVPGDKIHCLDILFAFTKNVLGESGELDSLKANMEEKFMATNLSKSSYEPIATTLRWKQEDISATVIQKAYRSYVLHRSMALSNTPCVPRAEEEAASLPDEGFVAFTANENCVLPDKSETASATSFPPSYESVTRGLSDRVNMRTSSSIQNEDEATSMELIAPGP

With `COC1CN(C(=O)CN2CCN(c3cccc4c3cnn4-c3ccccc3F)C2=O)C1` [Example 319, 1-[1-(2-fluorophenyl)-1H-indazol-4-yl]-3-[2-(3-methoxyazetidin-1-yl)-2-oxoethyl]imidazolidin-2-one], the IC50 at human Nav1.8 is 3020 nM; at human Nav1.7, 3140 nM.

For the molecule `CC1(F)CN(C(=O)CN2CCN(c3cccc4c3cnn4-c3ccccc3F)C2=O)C1` [Example 309, 1-[2-(3-fluoro-3-methylazetidin-1-yl)-2-oxoethyl]-3-[1-(2-fluorophenyl)-1H-indazol-4-yl]imidazolidin-2-one], the IC50 on human Nav1.8 was 725 nM; on human Nav1.7, 695 nM.

As to `O=C(CN1CCN(c2cccc3c2cnn3-c2ccccc2F)C1=O)N1CCCCC1` [Example 295, 1-[1-(2-fluorophenyl)-1H-indazol-4-yl]-3-[2-oxo-2-(piperidin-1-yl)ethyl]imidazolidin-2-one], the figures for the half-inhibitory concentration (IC50) on human Nav1.8 and on human Nav1.7 were 1790 nM and 2510 nM, respectively.

For `CC(C)CO[C@H]1CCCC[C@@H]1N1CCN(c2cccc3c2cnn3-c2ccccc2F)C1=O` [Example 280, 1-[1-(2-fluorophenyl)-1H-indazol-4-yl]-3-[(1S,2S)-2-isobutoxycyclohexyl]imidazolidin-2-one], the half-inhibitory concentration (IC50) at human Nav1.8 stood at 10800 nM; on human Nav1.7 it was 518 nM.

In the case of `CC(=O)C1CN(C(=O)CN2CCN(c3cccc4c3cnn4-c3ccccc3F)C2=O)C1` [Example 325, 1-[2-(3-acetylazetidin-1-yl)-2-oxoethyl]-3-[1-(2-fluorophenyl)-1H-indazol-4-yl]imidazolidin-2-one], the IC50 on human Nav1.8 was determined as 3860 nM; at human Nav1.7 it was 3120 nM.

`CON=C1CC(NC(=O)CN2CCN(c3cccc4c3cnn4-c3ccccc3F)C2=O)C1` (stereo not shown) [Example 355, 2-{3-[1-(2-fluorophenyl)-1H-indazol-4-yl]-2-oxoimidazolidin-1-yl}-N-[3-(methoxyimino)cyclobutyl]acetamide]: the IC50 worked out at 4050 nM at human Nav1.8 and 9230 nM on human Nav1.7.

With `O=C(CN1CCN(c2cccc3c2cnn3-c2ccccc2F)C1=O)N1CC[C@H](C(F)(F)F)C1` [Example 308, 1-[1-(2-fluorophenyl)-1H-indazol-4-yl]-3-{2-oxo-2-[(3S)-3-(trifluoromethyl)pyrrolidin-1-yl]ethyl}imidazolidin-2-one], the values for the IC50 on human Nav1.8 and on human Nav1.7 were 345 nM and 1020 nM, respectively.

In the case of `O=C(CN1CCN(c2cccc3c2cnn3-c2ccccc2F)C1=O)NC1CCCCC1` [Example 324, N-cyclohexyl-2-{3-[1-(2-fluorophenyl)-1H-indazol-4-yl]-2-oxoimidazolidin-1-yl}acetamide], the IC50 at human Nav1.8 was determined as 526 nM; at human Nav1.7, 1410 nM.

Turning to `CC1CN(C(=O)CN2CCN(c3cccc4c3cnn4-c3ccccc3F)C2=O)C1` [Example 352, 1-[1-(2-fluorophenyl)-1H-indazol-4-yl]-3-[2-(3-methylazetidin-1-yl)-2-oxoethyl]imidazolidin-2-one], the values for the IC50 at human Nav1.8 and on human Nav1.7 were 2580 nM and 1510 nM, respectively.

In the case of `O=C(CN1CCN(c2cccc3c2cnn3-c2ccccc2F)C1=O)NCC(F)(F)F` [Example 304, 2-{3-[1-(2-fluorophenyl)-1H-indazol-4-yl]-2-oxoimidazolidin-1-yl}-N-(2,2,2-trifluoroethyl)acetamide], the IC50 at human Nav1.8 was determined as 1410 nM; on human Nav1.7, 4790 nM.

In the case of `O=C(CN1CCN(c2cccc3c2cnn3-c2ccccc2F)C1=O)N1CC(O)C1` [Example 291, 1-[1-(2-fluorophenyl)-1H-indazol-4-yl]-3-[2-(3-hydroxyazetidin-1-yl)-2-oxoethyl]imidazolidin-2-one], the values for the IC50 at human Nav1.8 and at human Nav1.7 were 13100 nM and 5900 nM, respectively.

Regarding `O=C(CN1CCN(c2cccc3c2cnn3-c2ccccc2F)C1=O)NC1CCOCC1` [Example 320, 2-{3-[1-(2-fluorophenyl)-1H-indazol-4-yl]-2-oxoimidazolidin-1-yl}-N-(tetrahydro-2H-pyran-4-yl)acetamide], the results for the IC50 at human Nav1.8 and on human Nav1.7 were 10100 nM and 16800 nM, respectively.

Take `O=C1N(c2cccc3c2cnn3-c2ccccc2F)CCN1[C@H]1CCCC[C@@H]1O` [Example 276, 1-[1-(2-fluorophenyl)-1H-indazol-4-yl]-3-[(1S,2S)-2-hydroxycyclohexyl]imidazolidin-2-one]: the IC50 was 6440 nM on human Nav1.8 and 15100 nM on human Nav1.7.

In the case of `O=C(CN1CCN(c2cccc3c2cnn3-c2cc(Cl)cc(Cl)c2)C1=O)N1CC[C@H](F)C1` [Example 348, 1-[1-(3,5-dichlorophenyl)-1H-indazol-4-yl]-3-{2-[(3S)-3-fluoropyrrolidin-1-yl]-2-oxoethyl}imidazolidin-2-one], the IC50 was 3260 nM at human Nav1.8 and 13400 nM on human Nav1.7.

As for `O=C(CN1CCN(c2cccc3c2cnn3-c2ccccc2F)C1=O)NC1CCC(F)(F)C1` (stereo not shown) [Example 341, N-(3,3-difluorocyclopentyl)-2-{3-[1-(2-fluorophenyl)-1H-indazol-4-yl]-2-oxoimidazolidin-1-yl}acetamide], the figures for the IC50 at human Nav1.8 and on human Nav1.7 were 991 nM and 2900 nM, respectively.

`O=C(CN1CCN(c2cccc3c2cnn3-c2ccccc2F)C1=O)N1CC(F)(F)C(F)(F)C1` [Example 312, 1-[1-(2-fluorophenyl)-1H-indazol-4-yl]-3-[2-oxo-2-(3,3,4,4-tetrafluoropyrrolidin-1-yl)ethyl]imidazolidin-2-one]: the IC50 on human Nav1.8 amounted to 1680 nM; on human Nav1.7 it was 1710 nM.

As for `O=C(CN1CCN(c2cccc3c2cnn3-c2ccccc2F)C1=O)N[C@@H]1CCC[C@@H]1O` [Example 332, 2-{3-[1-(2-fluorophenyl)-1H-indazol-4-yl]-2-oxoimidazolidin-1-yl}-N-[(1R,2S)-2-hydroxycyclopentyl]acetamide], the concentration for half-maximal inhibition (IC50) turned out to be 2640 nM on human Nav1.8 and 5100 nM at human Nav1.7.

Regarding `CCN(CC)C(=O)CN1CCN(c2cccc3c2cnn3-c2ccccc2F)C1=O` [Example 93, N,N-diethyl-2-{3-[1-(2-fluorophenyl)-1H-indazol-4-yl]-2-oxoimidazolidin-1-yl}acetamide], the IC50 at human Nav1.8 amounted to 5180 nM; at human Nav1.7, 10700 nM.

In the case of `O=C(CN1CCN(c2cccc3c2cnn3-c2ccccc2F)C1=O)N1CCC(F)(F)CC1` [Example 297, 1-[2-(4,4-difluoropiperidin-1-yl)-2-oxoethyl]-3-[1-(2-fluorophenyl)-1H-indazol-4-yl]imidazolidin-2-one], the IC50 at human Nav1.8 was found to be 881 nM; on human Nav1.7, 3020 nM.

`O=C1N(c2cccc3c2cnn3-c2ccccc2F)CCN1[C@H]1CCCC[C@@H]1OCc1ccccc1` [Example 275, 1-[(1S,2S)-2-(benzyloxy)cyclohexyl]-3-[1-(2-fluorophenyl)-1H-indazol-4-yl]imidazolidin-2-one]: the IC50 was determined as 3700 nM on human Nav1.8 and 1410 nM on human Nav1.7.

For the molecule `O=C(CN1CCN(c2cccc3c2cnn3-c2ccccc2F)C1=O)N1CCC(F)CC1` [Example 69, 1-[1-(2-fluorophenyl)-1H-indazol-4-yl]-3-[2-(4-fluoropiperidin-1-yl)-2-oxoethyl]imidazolidin-2-one], the figures for the IC50 at human Nav1.8 and at human Nav1.7 were 4800 nM and 2950 nM, respectively.

Regarding `CC(C)COC1COCC1N1CCN(c2cccc3c2cnn3-c2ccccc2F)C1=O` (stereo not shown) [Example 336, 1-[1-(2-fluorophenyl)-1H-indazol-4-yl]-3-(4-isobutoxytetrahydrofuran-3-yl)imidazolidin-2-one], the IC50 is 867 nM at human Nav1.8 and 2140 nM at human Nav1.7.

For `O=C(CN1CCN(c2cccc3c2cnn3-c2ccccc2F)C1=O)NC1CCCC1(F)F` (stereo not shown) [Example 347, N-(2,2-difluorocyclopentyl)-2-{3-[1-(2-fluorophenyl)-1H-indazol-4-yl]-2-oxoimidazolidin-1-yl}acetamide], the IC50 at human Nav1.8 amounted to 1290 nM; at human Nav1.7, 3450 nM.

The values are drawn from patent publication US9783527B2, “Indazole ureas and method of use” (AbbVie Inc., priority 2014, dated 2017).
